Assay results taken from ChEMBL document CHEMBL3526061, “Glucuronidation of edaravone by human liver and kidney microsomes: biphasic kinetics and identification of UGT1A9 as the major UDP-glucuronosyltransferase isoform” (Drug Metab Dispos, 2012).

Legend:
Type in all cases: ADME
[1] = molecular target: T1, UDP-glucuronosyltransferase 2B4 (Homo sapiens, UniProt P06133); assay: Activity of human recombinant UGT2B4 expressed in insect cells assessed as enzyme mediated glucuronidation at 500 uM by LC-MS/MS method
T1 sequence (P06133 whole entry): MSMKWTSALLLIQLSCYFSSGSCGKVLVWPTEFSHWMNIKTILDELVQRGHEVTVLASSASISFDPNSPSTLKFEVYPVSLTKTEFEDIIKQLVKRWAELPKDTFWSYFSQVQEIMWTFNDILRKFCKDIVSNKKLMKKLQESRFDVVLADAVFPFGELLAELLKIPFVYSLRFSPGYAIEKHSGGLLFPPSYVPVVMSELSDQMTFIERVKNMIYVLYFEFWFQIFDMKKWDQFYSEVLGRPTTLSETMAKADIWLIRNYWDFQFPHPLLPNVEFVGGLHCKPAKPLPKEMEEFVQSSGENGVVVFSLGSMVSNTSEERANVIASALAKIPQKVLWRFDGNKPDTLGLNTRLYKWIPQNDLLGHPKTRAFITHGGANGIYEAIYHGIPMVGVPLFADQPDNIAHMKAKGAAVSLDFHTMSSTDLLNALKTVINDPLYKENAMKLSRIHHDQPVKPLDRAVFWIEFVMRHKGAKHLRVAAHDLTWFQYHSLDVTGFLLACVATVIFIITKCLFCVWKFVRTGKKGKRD

[2] = molecular target: T2, UDP-glucuronosyltransferase 1A6 (Homo sapiens, UniProt P19224); assay: Activity of human recombinant UGT1A6 expressed in insect cells assessed as enzyme mediated glucuronidation at 12.5 uM by LC-MS/MS method
T2 sequence (P19224 whole entry): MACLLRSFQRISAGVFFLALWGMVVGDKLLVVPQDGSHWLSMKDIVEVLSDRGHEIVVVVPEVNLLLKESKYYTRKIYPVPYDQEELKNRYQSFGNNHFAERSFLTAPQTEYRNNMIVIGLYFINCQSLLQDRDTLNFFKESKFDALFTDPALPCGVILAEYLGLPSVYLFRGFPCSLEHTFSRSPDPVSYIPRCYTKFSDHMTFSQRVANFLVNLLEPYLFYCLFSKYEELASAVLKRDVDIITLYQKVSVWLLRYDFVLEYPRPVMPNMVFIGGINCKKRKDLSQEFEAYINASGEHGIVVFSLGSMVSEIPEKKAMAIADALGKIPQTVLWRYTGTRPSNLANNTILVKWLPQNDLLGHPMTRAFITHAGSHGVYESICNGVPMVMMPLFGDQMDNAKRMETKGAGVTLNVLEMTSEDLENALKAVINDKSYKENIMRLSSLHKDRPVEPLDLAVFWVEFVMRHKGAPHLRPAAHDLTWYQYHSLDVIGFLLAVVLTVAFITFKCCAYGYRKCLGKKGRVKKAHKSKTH

[3] = Drug metabolism in human liver microsomes assessed as drug glucuronidation in presence of BSA by LC-MS/MS method
[4] = molecular target: T3, UDP-glucuronosyltransferase 1A1 (Homo sapiens, UniProt P22309); assay: Activity of human recombinant UGT1A1 expressed in insect cells assessed as enzyme mediated glucuronidation in presence of 10 to 50 uM estradiol by LC-MS/MS method
T3 sequence (P22309 whole entry): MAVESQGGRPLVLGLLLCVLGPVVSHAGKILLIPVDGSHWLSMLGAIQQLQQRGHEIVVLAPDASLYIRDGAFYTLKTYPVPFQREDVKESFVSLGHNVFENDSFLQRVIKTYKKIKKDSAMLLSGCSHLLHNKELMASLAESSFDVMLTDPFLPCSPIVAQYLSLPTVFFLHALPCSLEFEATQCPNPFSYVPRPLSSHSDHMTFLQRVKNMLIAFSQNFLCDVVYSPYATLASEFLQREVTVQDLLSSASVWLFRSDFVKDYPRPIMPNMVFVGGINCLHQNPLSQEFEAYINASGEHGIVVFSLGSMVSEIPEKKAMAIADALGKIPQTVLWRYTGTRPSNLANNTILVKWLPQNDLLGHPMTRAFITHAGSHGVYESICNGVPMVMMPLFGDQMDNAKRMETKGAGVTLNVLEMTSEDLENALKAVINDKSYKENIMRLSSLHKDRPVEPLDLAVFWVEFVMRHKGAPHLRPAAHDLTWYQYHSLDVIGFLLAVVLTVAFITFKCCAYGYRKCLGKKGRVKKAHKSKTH

[5] = tested on: Liver microsome; assay: Drug metabolism in human liver microsomes assessed as drug glucuronidation per mg tissue in absence of BSA by LC-MS/MS method
[6] = Drug metabolism in human kidney microsomes assessed as drug glucuronidation in presence of BSA by LC-MS/MS method
[7] = Drug metabolism in human kidney microsomes assessed as intrinsic clearance for drug glucuronidation per mg tissue in absence of BSA by LC-MS/MS method
[8] = Drug metabolism in human liver microsomes assessed as drug glucuronidation in absence of BSA by LC-MS/MS method
[9] = Drug metabolism in human kidney microsomes assessed as drug glucuronidation in presence of […] naloxone by LC-MS/MS method
[10] = molecular target: T4, UDP-glucuronosyltransferase 1A8 (Homo sapiens, UniProt Q9HAW9); assay: Activity of human recombinant UGT1A8 expressed in insect cells assessed as enzyme mediated glucuronidation at 12.5 uM by LC-MS/MS method
T4 sequence (Q9HAW9 whole entry): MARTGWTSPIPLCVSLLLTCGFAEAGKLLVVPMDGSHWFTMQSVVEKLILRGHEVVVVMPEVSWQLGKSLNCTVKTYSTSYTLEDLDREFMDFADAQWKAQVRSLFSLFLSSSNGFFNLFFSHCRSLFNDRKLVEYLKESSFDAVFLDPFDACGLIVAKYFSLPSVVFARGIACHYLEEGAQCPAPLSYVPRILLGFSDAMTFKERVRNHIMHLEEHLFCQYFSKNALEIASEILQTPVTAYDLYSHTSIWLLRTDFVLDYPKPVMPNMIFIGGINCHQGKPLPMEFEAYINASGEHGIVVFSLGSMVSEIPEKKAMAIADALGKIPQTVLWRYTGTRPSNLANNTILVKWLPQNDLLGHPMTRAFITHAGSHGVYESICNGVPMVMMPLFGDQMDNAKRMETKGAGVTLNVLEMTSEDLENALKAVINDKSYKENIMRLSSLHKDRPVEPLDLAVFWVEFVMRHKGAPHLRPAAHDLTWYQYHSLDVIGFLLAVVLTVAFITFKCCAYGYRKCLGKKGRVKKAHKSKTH

Drug metabolism [1]: metabolite_detected | Drug metabolism [2]: metabolite_detected | Km ([3]; read-out: KmH): 8.4 µM | Km ([3]; read-out: KmL): 1350 µM | Drug metabolism [4]: metabolite_not_detected | VmaxH [5]: 309.4 pmol/min/g | VmaxL [5]: 7429 pmol/min/g | Km ([6]; read-out: KmH): 8.7 µM | Km ([6]; read-out: KmL): 1470 µM | CL(high) [7]: 45.3 µL/min/mg | CL(low) [7]: 1.8 µL/min/mg | Km ([8]; read-out: KmH): 36.7 µM | Km ([8]; read-out: KmL): 5880 µM | Drug metabolism [9]: metabolite_detected | Drug metabolism [10]: metabolite_detected
SMILES: CC1=NN(c2ccccc2)C(=O)C1 [EDARAVONE]
